Calls of active or inactive are those of the source. How the calls were made is not given here.

From PubChem BioAssay AID1117324 (Cheminformatics & Chemogenomics Research Group (CCRG), …, 2015) come the findings set out here.

This experiment deals with VEGF-stimulated ADSC/ECFC co-culture, nuclear area imaging. The experiment is described as follows: nuclear area loss in endothelial-stromal co-culture, dose response, cell-based, VEGF stimulation, IC50 (AID 1117324).

For the compound `CC(=O)N(O)CCCCCNC(=O)CCC(=O)N(O)CCCCCNC(=O)CCC(=O)N(O)CCCCCN`, the IC50 (in general, the concentration that inhibits the measured activity by half) is > 10 µM (inactive). The value for `COc1cc(-c2ccc(=O)[nH]n2)ccc1OC(F)F` was > 10 µM (inactive). Regarding `Cc1c(N)cccc1C(F)(F)F`, the IC50 was > 10 µM (inactive). The value for `Clc1ccc(COC(Cn2ccnc2)c2ccc(Cl)cc2Cl)cc1` (configuration not stated) was 9.93 µM (inactive); that for `O=C1NCN(c2ccccc2)C12CCN(CCCC(c1ccc(F)cc1)c1ccc(F)cc1)CC2` was 8.09 µM (inactive).

As to `Oc1ccc(O)cc1`, the IC50 was > 10 µM (inactive). For `O=C(Nc1ccc(Br)cc1)c1cc(Br)c(Br)s1` the value was > 10 µM (inactive); for `CSc1ccc(/C=C2/C(C)=C(CC(=O)O)c3cc(F)ccc32)cc1`, > 10 µM (inactive). For `CCN1CCC[C@H]1CNC(=O)c1c(OC)ccc(Br)c1OC` the value was > 10 µM (inactive); for `CC(C)(C)C1CCC(CC2=C(O)c3ccccc3C(=O)C2=O)CC1` (configuration not stated), > 10 µM (inactive). For `CN1CCN(CCCN2c3ccccc3Sc3ccc(S(=O)(=O)N(C)C)cc32)CC1` the value was > 10 µM (inactive); for `CCCCCCCCCCCCNCCNCCNCC(=O)O`, > 10 µM (inactive).

Consider `C[n+]1cc2c3c(ccc2c2ccc4cc5c(cc4c21)OCO5)OCO3`, for which the IC50 is 0.97 µM. With `Cc1onc(-c2c(Cl)cccc2Cl)c1C(=O)Cl`, the IC50 was > 10 µM (inactive).

In the case of `Cc1cc(O)c2c(O)c3c(O)cccc3cc2c1`, the IC50 was > 10 µM (inactive). Regarding `COc1cc2c(c(OC)c1OC)-c1ccc(OC)c(=O)cc1[C@@H](NC(C)=O)CC2`, the IC50 is > 10 µM (inactive). Consider `Cc1c(O)cccc1C(=O)N[C@@H](CSc1ccccc1)[C@H](O)CN1C[C@H]2CCCC[C@H]2C[C@H]1C(=O)NC(C)(C)C`, for which the IC50 is > 10 µM (inactive). As for `CSc1ccc2c(c1)N(CCC1CCCCN1C)c1ccccc1S2` (configuration not stated), the IC50 is 9.24 µM (inactive).

Regarding `CC(=O)Nc1ccn(C2COC(COC(=O)c3ccccc3)O2)c(=O)n1` (configuration not stated), the IC50 is > 10 µM (inactive). The value for `COC(=O)Nc1nc2ccc(Sc3ccccc3)cc2[nH]1` was > 10 µM (inactive); that for `Oc1ccc2[nH]cc(CCCCN3CC=C(c4ccccc4)CC3)c2c1` was > 10 µM (inactive). In the case of `O=C1NCCN1CCN1CCC(c2cn(-c3ccc(F)cc3)c3ccc(Cl)cc23)CC1`, the IC50 was > 10 µM (inactive). For `O=[N+]([O-])c1cccc(S(=O)(=O)NCCNS(=O)(=O)c2cccc([N+](=O)[O-])c2)c1` the value was > 10 µM (inactive); for `CC(C)C[C@H](NC(=O)[C@H](CCc1ccccc1)NC(=O)CN1CCOCC1)C(=O)N[C@@H](Cc1ccccc1)C(=O)N[C@@H](CC(C)C)C(=O)[C@@]1(C)CO1`, 0.285 µM; for `C[C@@]12C(=O)OC(=O)[C@]1(C)C1CCC2O1`, 8.33 µM (inactive). Regarding `Nc1c2ccccc2nc2ccccc12`, the IC50 is > 10 µM (inactive). For `COC1=C(OC)C(=O)C(CCCCCCCCCCO)=C(C)C1=O` the value was > 10 µM (inactive).

For `CC(C)=CCNc1ncnc2c1ncn2[C@@H]1O[C@H](CO)[C@@H](O)[C@H]1O`, the IC50 was > 10 µM (inactive). The value for `COCCOC(=O)C1=C(C)NC(C)=C(C(=O)OC/C=C/c2ccccc2)C1c1cccc([N+](=O)[O-])c1` (configuration not stated) was > 10 µM (inactive); that for `CN(C)CCCN1c2ccccc2Sc2ccc(Cl)cc21` was > 10 µM (inactive); that for `O=c1[nH]c(=O)n([C@H]2C[C@H](O)[C@@H](CO)O2)cc1Br` was > 10 µM (inactive).

Regarding `CCCCCCCCCCCCCC[N+](C)(C)Cc1ccccc1`, the IC50 was 8.36 µM (inactive). `CC(=O)c1ccc(OCC(=O)N2CCCCC2)cc1`: the IC50 was > 10 µM (inactive).

Consider `CCOC(=O)[C@H](CCc1ccccc1)N[C@@H](C)C(=O)N1C(=O)N(C)C[C@H]1C(=O)O`, for which the IC50 was > 10 µM (inactive). As to `O=C1C2CC=CCC2C(=O)N1SC(Cl)(Cl)Cl` (configuration not stated), the IC50 is > 10 µM (inactive).

Turning to `NC(=O)n1c(O)c(C(=O)c2cccs2)c2cc(Cl)ccc21`, the IC50 is > 10 µM (inactive). For `Oc1c(Cl)cc(Cl)cc1Sc1cc(Cl)cc(Cl)c1O` the value was > 10 µM (inactive); for `CCCCCCCCCCCCCCCCCC[N+](C)(C)CCC[Si](OC)(OC)OC`, > 10 µM (inactive). The value for `CCCCCN=C(N)N/N=C/c1c[nH]c2ccc(OC)cc12` was 7.17 µM (inactive). The value for `C[C@H](O)CN(C)C` was > 10 µM (inactive); that for `CO[C@H]1O[C@@H]2O[C@@]3(C)CC[C@H]4[C@H](C)CC[C@@H]([C@@H]1C)[C@@]24OO3` was > 10 µM (inactive); that for `C/C(=C(/OCCOc1ccc(Cl)cc1)c1ccc(Cl)cc1Cl)n1ccnc1` was 9.42 µM (inactive). Take `COc1cccc2c1C(=O)c1c(O)c3c(c(O)c1C2=O)C[C@@](O)(C(=O)CO)CC3OC1CC(N2CCOC(OC)C2)C(O)C(C)O1` (some centres not stated): the IC50 is 0.0442 µM. `O=C1NC2CCCCN2C12CCN(CCCN1c3ccccc3CCc3ccc(Cl)cc31)CC2` (configuration not stated): the IC50 was > 10 µM (inactive). For `CCCOC(=O)c1cc(O)c(O)c(O)c1` the value was > 10 µM (inactive); for `O=C(N/N=C/c1ccccc1O)c1ccncc1`, > 10 µM (inactive). Consider `Cc1cc(O)c2ccccc2c1O`, for which the IC50 is 9.85 µM (inactive).

Take `Cn1ccc2cc3c(cc21)CCN3C(=O)Nc1cccnc1`: the IC50 is > 10 µM (inactive). In the case of `COc1cc(C=C2CCC/C(=C\c3ccc(O)c(OC)c3)C2=O)ccc1O`, the IC50 was 6.98 µM (inactive). In the case of `COc1ccc(-c2ccc3cc(C(=O)O)ccc3c2)cc1C12CC3CC(CC(C3)C1)C2`, the IC50 is > 10 µM (inactive). The value for `C[C@@H](NCCCc1cccc(C(F)(F)F)c1)c1cccc2ccccc12` was > 10 µM (inactive); that for `COC(=O)c1ccccc1C(=O)OC` was > 10 µM (inactive). The value for `COc1ccc(Cc2nccc3cc(OC)c(OC)cc23)cc1OC` was > 10 µM (inactive); that for `CCCCCCCCCCC[C@@H](C[C@@H]1OC(=O)[C@H]1CCCCCC)OC(=O)[C@H](CC(C)C)NC=O` was > 10 µM (inactive).

For the compound `CCCOc1ccc2nc(NC(=O)OC)[nH]c2c1`, the IC50 was > 10 µM (inactive). For `CC(C)(CO)[C@@H](O)C(=O)NCCC(=O)NCCSSCCNC(=O)CCNC(=O)[C@H](O)C(C)(C)CO`, the IC50 was > 10 µM (inactive). The value for `COc1cc2nc(N3CCN(C(=O)C4COc5ccccc5O4)CC3)nc(N)c2cc1OC` (configuration not stated) was > 10 µM (inactive). As to `Cc1c(C)c2c(c(C)c1O)CCC(C)(COc1ccc(CC3SC(=O)NC3=O)cc1)O2` (configuration not stated), the IC50 is > 10 µM (inactive).

On to `CC(=O)[O][Hg][c]1ccccc1`, for which the concentration for half-maximal inhibition (IC50) is 0.883 µM.

Take `Cc1nc(Nc2ncc(C(=O)Nc3c(C)cccc3Cl)s2)cc(N2CCN(CCO)CC2)n1`: the IC50 is > 10 µM (inactive).

For `CCOC(=O)NC(C)(C)Cc1ccc(Cl)cc1`, the IC50 is > 10 µM (inactive). On to `Clc1cc(Cl)c(OCC#CI)cc1Cl`, for which the IC50 is > 10 µM (inactive). For `CCCCC(CC)COC(=O)C(C#N)=C(c1ccccc1)c1ccccc1` (configuration not stated) the value was 3.29 µM.

`Nc1nc(F)nc2c1ncn2[C@@H]1O[C@H](CO)[C@@H](O)[C@@H]1O`: the IC50 is > 10 µM (inactive). For `CC(C)OC(=O)OCOP(=O)(CO[C@H](C)Cn1cnc2c(N)ncnc21)OCOC(=O)OC(C)C` the value was > 10 µM (inactive). With `O=C(NOCC1CC1)c1ccc(F)c(F)c1Nc1ccc(I)cc1Cl`, the IC50 is > 10 µM (inactive).

As to `Cc1cc(C2CCCCC2)n(O)c(=O)c1`, the IC50 was > 10 µM (inactive). For `O=C(OCCO)c1ccccc1O`, the IC50 was > 10 µM (inactive).

On to `C#C[C@]1(O)CC[C@@H]2[C@@H]3CCC4=CCCC[C@@H]4[C@H]3C(=C)C[C@@]21CC`, for which the IC50 is 9.57 µM (inactive). The value for `CSc1ccc2c(c1)C(N1CCN(C)CC1)Cc1ccccc1S2` (configuration not stated) was > 10 µM (inactive); that for `CC(C(O)c1ccccc1)N(C)C/C=C/c1ccccc1` (configuration not stated) was > 10 µM (inactive); that for `CCCCN1CCCC1C(=O)Nc1c(C)cc(C)cc1C` (configuration not stated) was > 10 µM (inactive). For the compound `O=C1c2c(O)ccc(O)c2C(=O)c2c(NCCNCCO)ccc(NCCNCCO)c21`, the concentration for half-maximal inhibition (IC50) was 0.0127 µM. Consider `O=C(Nc1ccc([N+](=O)[O-])cc1)Nc1ccc([N+](=O)[O-])cc1`, for which the IC50 is > 10 µM (inactive). The value for `Clc1ccc(C(Cn2ccnc2)OCc2ccsc2Cl)c(Cl)c1` (configuration not stated) was 9.47 µM (inactive); that for `CN(C)c1ccc(C(=C2C=CC(=[N+](C)C)C=C2)c2ccc(N(C)C)cc2)cc1` was 1.83 µM; that for `Clc1ccccc1C(c1ccccc1)(c1ccccc1)n1ccnc1` was > 10 µM (inactive). Take `Cc1cc(-c2ccc(N=Nc3c(S(=O)(=O)O)cc4cc(S(=O)(=O)O)cc(N)c4c3O)c(C)c2)ccc1N=Nc1c(S(=O)(=O)O)cc2cc(S(=O)(=O)O)cc(N)c2c1O`: the IC50 was > 10 µM (inactive). For `O=C(Nc1ccc([N+](=O)[O-])cc1Cl)c1cc(Cl)ccc1O` the value was 5.81 µM (inactive). For `O=C(Nc1ccc(Br)cc1)c1cc(Br)cc(Br)c1O` the value was > 10 µM (inactive).

For `C1CN(P2(N3CC3)=NP(N3CC3)(N3CC3)=NP(N3CC3)(N3CC3)=N2)CCO1` (configuration not stated), the IC50 was > 10 µM (inactive). For `CN(Cc1cnc2nc(N)nc(N)c2n1)c1ccc(C(=O)N[C@@H](CCC(=O)O)C(=O)O)cc1` the value was > 10 µM (inactive); for `CCc1oc2ccccc2c1C(=O)c1cc(Br)c(O)c(Br)c1`, > 10 µM (inactive); for `COc1ccccc1OCCNCC(O)COc1cccc2[nH]c3ccccc3c12` (configuration not stated), > 10 µM (inactive). For `CC(CC=O)CCCC(C)(C)O` (configuration not stated) the value was > 10 µM (inactive). `Cc1ccc([N+](=O)[O-])[c]2c1[O][Hg]2`: the IC50 is 1.09 µM.

With `Cc1ccc(C(=O)Oc2ccc(C(O)CNC(C)(C)C)cc2OC(=O)c2ccc(C)cc2)cc1` (configuration not stated), the IC50 is > 10 µM (inactive).
